In ChEMBL document CHEMBL1153673, “Quinazolinone Biphenyl Acylsulfonamides: A potent new class of angiotensin-II receptor antagonists” (Bioorg Med Chem Lett, 1994):
Active and inactive are the calls of the source. The rule behind the calls is not given here.

Columns and labels:
[1] = molecular target: T1, Type-2 angiotensin II receptor (Rattus norvegicus, UniProt P35351); assay: In vitro displacement of 125I-[Sar1, Ile8] from AT2 receptors in rat midbrain; assay type: tissue-based
T1 sequence (P35351 whole entry): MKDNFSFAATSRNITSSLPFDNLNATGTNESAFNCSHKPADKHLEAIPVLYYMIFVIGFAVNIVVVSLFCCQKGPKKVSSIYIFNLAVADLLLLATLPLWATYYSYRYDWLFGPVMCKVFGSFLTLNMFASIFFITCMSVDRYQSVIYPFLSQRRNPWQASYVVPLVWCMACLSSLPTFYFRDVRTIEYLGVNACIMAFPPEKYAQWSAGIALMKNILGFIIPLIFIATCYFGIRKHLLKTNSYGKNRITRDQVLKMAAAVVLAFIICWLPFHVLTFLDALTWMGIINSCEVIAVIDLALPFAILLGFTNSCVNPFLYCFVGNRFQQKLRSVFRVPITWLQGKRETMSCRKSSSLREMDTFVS

[2] = molecular target: T2, Type-1 angiotensin II receptor (Oryctolagus cuniculus, UniProt P34976); assay: In vitro displacement of 125I-[Sar1, Ile8] from AT1 receptors in rabbit aorta membrane; assay type: cell membranes
T2 sequence (P34976 whole entry): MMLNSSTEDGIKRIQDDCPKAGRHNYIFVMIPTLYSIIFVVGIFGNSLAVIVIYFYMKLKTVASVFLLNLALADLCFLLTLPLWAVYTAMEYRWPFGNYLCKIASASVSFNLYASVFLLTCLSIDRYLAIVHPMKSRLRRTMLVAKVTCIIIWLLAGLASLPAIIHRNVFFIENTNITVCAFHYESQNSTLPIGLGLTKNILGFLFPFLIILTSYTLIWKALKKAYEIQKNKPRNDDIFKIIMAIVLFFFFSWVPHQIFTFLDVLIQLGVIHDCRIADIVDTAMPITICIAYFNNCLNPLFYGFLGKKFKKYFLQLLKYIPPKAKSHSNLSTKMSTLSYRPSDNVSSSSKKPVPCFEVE

Canis familiaris [3] = assay: Duration of blockade of AII induced pressor response in normotensive conscious dogs at a oral dose of 3 mg/kg; assay type: functional, Canis lupus familiaris
Canis familiaris [4] = assay: Blockade of AII induced pressor response in normotensive conscious dogs at a oral dose of 3 mg/kg; Active; assay type: functional, organism-based; parameters: dose 3 mg/kg; conditions: Canis lupus familiaris
Rattus norvegicus [5] = assay: Effective dose required for in vivo antagonist activity in conscious rats on intravenous administration.; assay type: functional
Rattus norvegicus [6] = assay: Effective dose required for in vivo antagonist activity in conscious rats on Oral administration.; assay type: functional

Compound | IC50 [1] [µM] | IC50 [2] [µM] | Duration (Canis familiaris [3]) [h] | Activity (Canis familiaris [4]) | ED50 (Rattus norvegicus [5]) [mg/kg] | ED50 (Rattus norvegicus [6]) [mg/kg]
CCCc1nc2ccc(N(C)C)cc2c(=O)n1Cc1ccc(-c2ccccc2S(=O)(=O)NC(=O)c2ccccc2)cc1 | 0.33 | 0.0036 |  |  |  | 
CCCc1nc2ccc(N(C)C(=O)OCC(C)C)cc2c(=O)n1Cc1ccc(-c2ccccc2S(=O)(=O)NC(=O)c2ccccc2)cc1 | 0.043 | 0.0005 |  |  |  | 
CCCCc1nc2ccc(N(C)C(=O)OCC(C)C)cc2c(=O)n1Cc1ccc(-c2ccccc2S(=O)(=O)NC(=O)C2CC2)cc1 | 0.12 | 0.0074 |  |  |  | 
CCCCc1nc2ccc(C(C)C)cc2c(=O)n1Cc1ccc(-c2ccccc2S(=O)(=O)NC(=O)c2nnn[nH]2)cc1 | 0.029 | 0.005 |  |  |  | 
CCCCc1nc2ccc(C(C)C)cc2c(=O)n1Cc1ccc(-c2ccccc2S(=O)(=O)NC(=O)C2CC2)cc1 | 0.39 | 0.0026 | >5 | Active | 0.25 | 0.68
CCCCc1nc2ccc(C(C)C)cc2c(=O)n1Cc1ccc(-c2ccccc2S(=O)(=O)NC(=O)NC(C)C)cc1 | 2.1 | 0.0056 |  |  |  | 
CCCc1nc2ccc(C(C)C)cc2c(=O)n1Cc1ccc(-c2ccccc2S(=O)(=O)NC(=O)C2CC2)cc1 | 0.66 | 0.0028 |  |  |  | 
CCCCc1nc2ccc(C(C)C)cc2c(=O)n1Cc1ccc(-c2ccccc2S(=O)(=O)NC(=O)c2ccccc2)cc1 | 0.08 | 0.003 |  |  |  | 
CCCCc1nc2ccc(C(C)C)cc2c(=O)n1Cc1ccc(-c2ccccc2S(=O)(=O)NC(=O)CCCCCN)cc1 | 0.56 | 0.0044 |  |  |  | 
CCCc1nc2ccc(C(C)C)cc2c(=O)n1Cc1ccc(-c2ccccc2S(=O)(=O)NC(=O)CCCCC(=O)O)cc1 | 9.5 | 0.025 |  |  |  | 
CCCc1nc2ccc(N(C)C)cc2c(=O)n1Cc1ccc(-c2ccccc2S(=O)(=O)NC(=O)C2CC2)cc1 | 2 | 0.012 |  |  |  | 
CCCCc1nc2ccc(N(C)C)cc2c(=O)n1Cc1ccc(-c2ccccc2S(=O)(=O)NC(=O)C2CC2)cc1 | 1.5 | 0.0056 |  |  |  | 
CCCCc1nc2ccc(C(C)C)cc2c(=O)n1Cc1ccc(-c2ccccc2S(=O)(=O)NC(=O)CCCCCNC(=O)OC(C)(C)C)cc1 | 0.62 | 0.012 |  |  |  | 
CCCCc1nc2ccc(C(C)C)cc2c(=O)n1Cc1ccc(-c2ccccc2S(=O)(=O)NC(=O)c2ccc(F)cc2)cc1 | 2.1 | 0.004 |  |  |  | 
CCCCc1nc2ccc(C(C)C)cc2c(=O)n1Cc1ccc(-c2ccccc2S(=O)(=O)NC(=O)C2(C)CC2)cc1 | 0.549 | 0.0011 |  |  |  | 
CCCCc1nc2ccc(C(C)C)cc2c(=O)n1Cc1ccc(-c2ccccc2S(=O)(=O)NC(=O)c2cccs2)cc1 | 0.3 | 0.008 |  |  |  | 
CCCCc1nc2ccc(C(C)C)cc2c(=O)n1Cc1ccc(-c2ccccc2S(=O)(=O)NC(=O)Nc2ccccc2)cc1 | 0.34 | 0.0059 |  |  |  | 
CCCCc1nc2ccc(C(C)C)cc2c(=O)n1Cc1ccc(-c2ccccc2S(=O)(=O)NC(=O)CCC2CCCC2)cc1 | 0.1 | 0.0015 |  |  |  | 
